Converted amounts (≈) assume the structure as drawn.
What was measured:
Type in all cases: functional
Escherichia coli = experiment: Antibacterial activity against Escherichia coli ATCC 35218 after 24 hrs by MTT assay; conditions: ATCC 35218, 24 h
Pseudomonas aeruginosa = experiment: Antibacterial activity against Pseudomonas aeruginosa ATCC 13525 after 24 hrs by MTT assay; conditions: ATCC 13525, 24 h
Bacillus subtilis = experiment: Antibacterial activity against Bacillus subtilis ATCC 6633 after 24 hrs by MTT assay; conditions: ATCC 6633, 24 h
Staphylococcus aureus = experiment: Antibacterial activity against Staphylococcus aureus ATCC 6538 after 24 hrs by MTT assay; conditions: ATCC 6538, 24 h
Aspergillus niger = experiment: Antifungal activity against Aspergillus niger ATCC 16404 after 24 hrs by MTT assay; conditions: ATCC 16404, 24 h
Trichophyton rubrum = experiment: Antifungal activity against Trichophyton rubrum ATCC 10218 after 24 hrs by MTT assay; conditions: ATCC 10218, 24 h

Row | Compound | MIC (Escherichia coli) | MIC (Pseudomonas aeruginosa) | MIC (Bacillus subtilis) | MIC (Staphylococcus aureus) | MIC (Aspergillus niger) | MIC (Trichophyton rubrum)
1 | O=C(Nc1ccc(Br)cc1)N1CCOCC1 | 3.1 µg/mL (≈ 10.9 µM) | 37.1 µg/mL (≈ 130 µM) | > 50 µg/mL | > 50 µg/mL | > 50 µg/mL | > 50 µg/mL
2 | O=C(Nc1ccc2c(c1)Cc1ccccc1-2)N1CCOCC1 | > 50 µg/mL | 31.5 µg/mL (≈ 107 µM) | 40.2 µg/mL (≈ 137 µM) | > 50 µg/mL | > 50 µg/mL | 31.2 µg/mL (≈ 106 µM)
3 | O=C(Nc1ccccc1)N1CCOCC1 | 6.2 µg/mL (≈ 30.1 µM) | 22 µg/mL (≈ 107 µM) | > 50 µg/mL | > 50 µg/mL | > 50 µg/mL | > 50 µg/mL
4 | Cc1ccc(NC(=O)N2CCOCC2)cc1 | 7.2 µg/mL (≈ 32.7 µM) | > 50 µg/mL | > 50 µg/mL | > 50 µg/mL | > 50 µg/mL | 38.4 µg/mL (≈ 174 µM)
5 | O=C(Nc1ccccc1Cl)N1CCOCC1 | 3.1 µg/mL (≈ 12.9 µM) | > 50 µg/mL | 3.1 µg/mL (≈ 12.9 µM) | > 50 µg/mL | > 50 µg/mL | > 50 µg/mL
6 | COc1ccc(NC(=O)N2CCOCC2)cc1 | 7.5 µg/mL (≈ 31.7 µM) | 12.5 µg/mL (≈ 52.9 µM) | > 50 µg/mL | > 50 µg/mL | > 50 µg/mL | 12.5 µg/mL (≈ 52.9 µM)
7 | O=C(Nc1cc(Cl)cc(Cl)c1)N1CCOCC1 | 12.5 µg/mL (≈ 45.4 µM) | 8.8 µg/mL (≈ 32 µM) | 6.2 µg/mL (≈ 22.5 µM) | > 50 µg/mL | > 50 µg/mL | 12.5 µg/mL (≈ 45.4 µM)
8 | O=C(N1CCOCC1)N1CCCc2ccccc21 | > 50 µg/mL | 8.2 µg/mL (≈ 33.3 µM) | > 50 µg/mL | > 50 µg/mL | 12.5 µg/mL (≈ 50.7 µM) | 12.5 µg/mL (≈ 50.7 µM)
9 | O=C(Nc1cccc2cccnc12)N1CCOCC1 | > 50 µg/mL | 25.3 µg/mL (≈ 98.3 µM) | 38.7 µg/mL (≈ 150 µM) | > 50 µg/mL | > 50 µg/mL | 40.8 µg/mL (≈ 159 µM)
10 | NC[C@H]1O[C@H](O[C@H]2[C@H](O)[C@@H](O[C@H]3O[C@H](CO)[C@@H](O)[C@H](N)[C@H]3O)[C@H](N)C[C@@H]2N)[C@H](O)[C@@H](O)[C@@H]1O [KANAMYCIN] | 3.1 µg/mL (≈ 6.4 µM) | 3.1 µg/mL (≈ 6.4 µM) | 0.4 µg/mL (≈ 0.826 µM) | 1 µg/mL (≈ 2.06 µM) | – | –
11 | CC(=O)N1CCN(c2ccc(OCC3COC(Cn4ccnc4)(c4ccc(Cl)cc4Cl)O3)cc2)CC1 (stereo not given) [KETOCONAZOLE] | – | – | – | – | 7.8 µg/mL (≈ 14.7 µM) | 3.9 µg/mL (≈ 7.34 µM)
12 | CC1(C)S[C@@H]2[C@H](NC(=O)Cc3ccccc3)C(=O)N2[C@H]1C(=O)O [PENICILLIN G] | > 50 µg/mL | 6.2 µg/mL (≈ 18.5 µM) | 1.6 µg/mL (≈ 4.78 µM) | 2 µg/mL (≈ 5.98 µM) | – | –

Next, values leading:

Row | MIC (Escherichia coli) | MIC (Pseudomonas aeruginosa) | MIC (Bacillus subtilis) | MIC (Staphylococcus aureus) | MIC (Aspergillus niger) | MIC (Trichophyton rubrum) | Compound
13 | > 50 µg/mL | > 50 µg/mL | > 50 µg/mL | > 50 µg/mL | 45.2 µg/mL (≈ 173 µM) | > 50 µg/mL | CCN(CC)C(=O)Nc1ccc(Cl)cc1Cl
14 | 7.2 µg/mL (≈ 29 µM) | 8 µg/mL (≈ 32.2 µM) | > 50 µg/mL | > 50 µg/mL | > 50 µg/mL | 20.7 µg/mL (≈ 83.4 µM) | CC(C)c1ccc(NC(=O)N2CCOCC2)cc1
15 | 1.6 µg/mL (≈ 7.14 µM) | 6.2 µg/mL (≈ 27.6 µM) | > 50 µg/mL | > 50 µg/mL | > 50 µg/mL | 3.5 µg/mL (≈ 15.6 µM) | O=C(Nc1ccc(F)cc1)N1CCOCC1
16 | 2.1 µg/mL (≈ 9.37 µM) | 12.5 µg/mL (≈ 55.7 µM) | 1.6 µg/mL (≈ 7.14 µM) | > 50 µg/mL | > 50 µg/mL | 3.1 µg/mL (≈ 13.8 µM) | O=C(Nc1ccccc1F)N1CCOCC1
17 | 4.2 µg/mL (≈ 17.3 µM) | > 50 µg/mL | > 50 µg/mL | > 50 µg/mL | > 50 µg/mL | 18.2 µg/mL (≈ 75.1 µM) | O=C(Nc1ccc(F)cc1F)N1CCOCC1
18 | 12.5 µg/mL (≈ 45.4 µM) | 50 µg/mL (≈ 182 µM) | > 50 µg/mL | > 50 µg/mL | > 50 µg/mL | > 50 µg/mL | O=C(Nc1ccc(Cl)cc1Cl)N1CCOCC1
19 | 25 µg/mL (≈ 119 µM) | 12.5 µg/mL (≈ 59.5 µM) | 6.2 µg/mL (≈ 29.5 µM) | > 50 µg/mL | > 50 µg/mL | 32.6 µg/mL (≈ 155 µM) | CCN(CC)C(=O)Nc1ccc(F)cc1
20 | 25 µg/mL (≈ 119 µM) | > 50 µg/mL | 12.5 µg/mL (≈ 59.5 µM) | > 50 µg/mL | > 50 µg/mL | > 50 µg/mL | CCN(CC)C(=O)Nc1ccccc1F
21 | 25 µg/mL (≈ 110 µM) | > 50 µg/mL | 12.5 µg/mL (≈ 54.8 µM) | > 50 µg/mL | > 50 µg/mL | > 50 µg/mL | CCN(CC)C(=O)Nc1ccc(F)cc1F
22 | > 50 µg/mL | 12.5 µg/mL (≈ 53.3 µM) | > 50 µg/mL | > 50 µg/mL | > 50 µg/mL | > 50 µg/mL | CCN(CC)C(=O)Nc1ccc(C(C)C)cc1
23 | 25 µg/mL (≈ 92.2 µM) | > 50 µg/mL | > 50 µg/mL | > 50 µg/mL | 23 µg/mL (≈ 84.8 µM) | > 50 µg/mL | CCN(CC)C(=O)Nc1ccc(Br)cc1
